For one assay, the target named is T1, His-tagged Parp-1 (Homo sapiens, UniProt P09874).
T1 construct: purchased Enzo Life Sciences GmbH, Lörrach, Germany
Nature of the assay: PARP-1 autoparsylation HTRF assay. The format is biochemical. The source says:
Description of the PARP1 Assay
Biochemical Activity Testing of PARP-1: Autoparsylation Assay
The autoparsylation assay is run in two steps: the enzymatic reaction in which His-tagged Parp-1 transfers biotinylated ADP-ribose/ADP-ribose to itself from biotinylated NAD/NAD as co-substrate and the detection reaction where a time resolved FRET between cryptate labelled anti-His antibody bound to the His tag of the enzyme and Xlent® labelled-streptavidin bound the biotin-parsylation residue is analysed. The autoparsylation activity is detectable directly via the increase in HTRF signal.
The autoparsylation assay is performed as 384-well HTRF® (Cisbio, Codolet, France) assay format in Greiner low volume nb 384-well microtiter plates. 35 nM His-tagged Parp-1 (human, recombinant, Enzo Life Sciences GmbH, Lörrach, Germany) and a mixture of 125 nM bio-NAD (Biolog, Life science Inst., Bremen, Germany) and 800 nM NAD as co-substrate are incubated in a total volume of 6 μl (100 mM Tris/HCl, 4 mM Mg-chloride, 0.01% IGEPAL® CA630, 1 mM DTT, 0.5% DMSO, pH 8, 13 ng/μl activated DNA (BPS Bioscience, San Diego, US)) in the absence or presence of the test compound (10 dilution concentrations) for 150 min at 23° C. The reaction is stopped by the addition of 4 μl of the Stop/detection solution (70 nM SA-Xlent® (Cisbio, Codolet, France), 2.5 nM Anti-His-K® (Eu-labelled anti-His, Cisbio, Codolet, France) in 50 mM HEPES, 400 mM KF, 0.1% BSA, 20 mM EDTA, pH 7.0). After 1 h incubation at room temperature the HTRF iss measured with an Envision multimode reader (Perkin Elmer LAS Germany GmbH) at excitation wavelength 340 nm (laser mode) and emission wavelengths 615 nm and 665 nm. The ratio of the emission signals is determined. The full value used is the inhibitor-free reaction. The pharmacological zero value used is Olaparib (LClabs, Woburn, US) in a final concentration of 1 μM. The inhibitory values (IC50) are determined using either the program Symyx Assay Explorer® or Condosseo® from GeneData.
In general terms: TR-FRET usually uses a lanthanide donor and a delayed reading to cut background.

Assay [1] concerns the target T2, GST-tagged Tankyrase-1 (1023-1327 aa) (Homo sapiens, UniProt O95271).
T2 construct: GST-tagged Tankyrase-1 (1023-1327 aa)
The assay can be described thus: Tankyrase 1 autoparsylation HTRF enzyme assay. The format is biochemical. The following applies: read-out: IC50 TNKS1 enzyme assay. The procedure: Biochemical activity testing of Tankyrase 1 and 2: Autoparsylation assay
The autoparsylation assay is run in two steps: the enzymatic reaction in which GST-tagged Tankyrase-1, resp Tankyrase-2 transferred biotinylated ADP-ribose to itself from biotinylated NAD as co-substrate and the detection reaction where a time resolved FRET between cryptate labelled anti-GST bound to the GST tag of the enzyme and Xlent® labelled-streptavidin bound the biotin-parsylation residue is analysed. The autoparsylation activity was detectable directly via the increase in HTRF signal.
The autoparsylation assay is performed as 384-well HTRF® (Cisbio, Codolet, France) assay format in Greiner low volume nb 384-well microtiter plates and is used for high throughput screen. 250 nM GST-tagged Tankyrase-1 (1023-1327 aa), respectively about 250 nM GST-tagged Tankyrase-2 (873-1166 aa) and 5 μM bio-NAD (Biolog, Life science Inst., Bremen, Germany) as co-substrate are incubated in a total volume of 5 μl (50 mM HEPES, 4 mM Mg-chloride, 0.05% Pluronic F-68, 1.4 mM DTT, 0.5% DMSO, pH 7.7) in the absence or presence of the test compound (10 dilution concentrations) for 90 min at 30° C. The reaction is stopped by the addition of 1 μl 50 mM EDTA solution. 2 μl of the detection solution (1.6 μM SA-Xlent® (Cisbio, Codolet, France), 7.4 nM Anti-GST-K® (Eu-labelled anti-GST, Cisbio, Codolet, France) in 50 mM HEPES, 800 mM KF, 0.1% BSA, 20 mM EDTA, 0.1% CHAPS, pH 7.0) are added. After 1 h incubation at room temperature the HTRF is measured with an Envision multimode reader (Perkin Elmer LAS Germany GmbH) at excitation wavelength 340 nm (laser mode) and emission wavelengths 615 nm and 665 nm. The ratio of the emission signals is determined. The full value used is the inhibitor-free reaction. The pharmacological zero value used is XAV-939 (Tocris) in a final concentration of 5 μM. The inhibitory values (IC50) are determined using either the program Symyx Assay Explorer® or Condosseo® from GeneData.

A value given as a limit tells only on which side of the number the result lay.

T2 sequence (O95271 1023-1327): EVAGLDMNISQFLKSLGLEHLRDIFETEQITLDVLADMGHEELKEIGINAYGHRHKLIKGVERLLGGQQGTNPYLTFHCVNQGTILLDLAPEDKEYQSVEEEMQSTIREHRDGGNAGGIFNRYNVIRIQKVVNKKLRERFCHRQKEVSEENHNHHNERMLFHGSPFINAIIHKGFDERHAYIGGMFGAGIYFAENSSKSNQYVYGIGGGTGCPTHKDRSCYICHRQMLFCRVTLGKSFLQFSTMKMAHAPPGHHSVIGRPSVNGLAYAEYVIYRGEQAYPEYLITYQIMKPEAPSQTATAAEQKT
T1 sequence (P09874 whole entry): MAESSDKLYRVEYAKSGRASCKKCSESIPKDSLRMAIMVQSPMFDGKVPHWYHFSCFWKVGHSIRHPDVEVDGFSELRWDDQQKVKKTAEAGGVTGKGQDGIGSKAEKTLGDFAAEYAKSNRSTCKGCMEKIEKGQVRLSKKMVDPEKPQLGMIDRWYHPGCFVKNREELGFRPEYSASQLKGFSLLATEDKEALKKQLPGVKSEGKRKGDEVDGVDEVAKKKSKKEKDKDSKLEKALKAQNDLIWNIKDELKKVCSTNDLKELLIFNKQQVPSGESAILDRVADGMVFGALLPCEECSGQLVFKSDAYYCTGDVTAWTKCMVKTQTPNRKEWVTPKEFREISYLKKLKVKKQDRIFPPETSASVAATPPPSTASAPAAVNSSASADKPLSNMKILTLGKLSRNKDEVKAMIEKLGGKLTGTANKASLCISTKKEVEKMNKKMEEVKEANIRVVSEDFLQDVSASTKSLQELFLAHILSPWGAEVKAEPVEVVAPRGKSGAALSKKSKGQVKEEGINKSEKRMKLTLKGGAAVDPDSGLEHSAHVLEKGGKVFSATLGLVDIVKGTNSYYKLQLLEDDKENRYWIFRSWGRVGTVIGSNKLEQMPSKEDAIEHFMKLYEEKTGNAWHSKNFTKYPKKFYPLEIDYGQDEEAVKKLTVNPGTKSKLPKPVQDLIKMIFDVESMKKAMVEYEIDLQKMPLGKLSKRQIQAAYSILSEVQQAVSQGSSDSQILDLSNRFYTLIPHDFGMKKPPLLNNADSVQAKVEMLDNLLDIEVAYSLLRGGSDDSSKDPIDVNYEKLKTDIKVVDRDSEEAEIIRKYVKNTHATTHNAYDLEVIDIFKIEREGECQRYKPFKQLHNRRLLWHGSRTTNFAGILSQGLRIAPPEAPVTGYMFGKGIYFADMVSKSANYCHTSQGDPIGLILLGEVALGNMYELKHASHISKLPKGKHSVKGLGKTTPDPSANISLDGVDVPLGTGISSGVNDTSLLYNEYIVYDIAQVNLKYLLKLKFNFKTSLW

Regarding `CCN(C(=O)N1CCC(C(=O)c2cccc(C)c2)CC1)c1ccc(OC)cc1` [Compound A26, 4-(3-methyl-benzoyl)-piperidine-1-carboxylic acid ethyl-(4-methoxy-phenyl)amide], the results for the IC50 (at His-tagged Parp-1; in assay [1]) were 3 to 50 µM and under 0.3 µM, respectively.
For `COc1ccc(N(C)C(=O)N2CCC(C(=O)c3ccc(C)cc3)CC2)cc1` [Compound A5, 4-(4-methyl-benzoyl)-piperidine-1-carboxylic acid (4-methoxy-phenyl)-methylamide], the IC50 was 3 to 50 µM at His-tagged Parp-1 and under 0.3 µM in assay [1].
In the case of `COc1ccc(N(CCO)C(=O)N2CCC(C(=O)c3ccccc3)CC2)cc1` [Compound A15, 4-benzoyl-piperidine-1-carboxylic acid (2-hydroxy-ethyl)-(4-methoxy-phenyl)amide], the half-inhibitory concentration (IC50) was in the range of 3 to 50 µM at His-tagged Parp-1 and 0.3 to 3 µM in assay [1].
Turning to `Cc1ccc(C(=O)C2CCN(C(=O)N3CCc4ccccc43)CC2)cc1` [Compound A17, (2,3-dihydro-indol-1-yl)-[4-(4-methyl-benzoyl)-piperidin-1-yl]-methanone], the IC50 fell in the range of 3 to 50 µM at His-tagged Parp-1 and 0.3 to 3 µM in assay [1].
Take `CCN(C(=O)N1CCC(C(=O)c2ccc(OC)c(C)c2)CC1)c1ccc(OC)cc1` [Compound A24, 4-(4-methoxy-3-methyl-benzoyl)-piperidine-1-carboxylic acid ethyl-(4-methoxy-phenyl)-amide]: the half-maximal inhibitory concentration (IC50) is 3 to 50 µM on His-tagged Parp-1 and under 0.3 µM in assay [1].
On to `COc1ccc(N(C)C(=O)N2CCC(C(=O)c3ccc(OC)c(F)c3)CC2)cc1` [Compound A29, 4-(3-fluoro-4-methoxy-benzoyl)-piperidine-1-carboxylic acid (4-methoxy-phenyl)-methyl-amide], for which the IC50 against His-tagged Parp-1 lay in the range of 3 to 50 µM.
Turning to `COc1ccc(C(=O)C2CCN(C(=O)N(C)c3ccc(OC)cc3)CC2)cc1` [Compound A6, 4-(4-methoxy-benzoyl)-piperidine-1-carboxylic acid (4-methoxy-phenyl)methyl-amide], the IC50 is 3 to 50 µM at His-tagged Parp-1 and under 0.3 µM in assay [1].
For the compound `COc1ccc(N(C)C(=O)N2CCC(C(=O)c3cccc(C)c3)CC2)cc1` [Compound A25, 4-(3-methyl-benzoyl)-piperidine-1-carboxylic acid (4-methoxy-phenyl)methyl-amide], the IC50 was 3 to 50 µM against His-tagged Parp-1 and under 0.3 µM in assay [1].
With `COc1ccc(N(C)C(=O)N2CCC(C(=O)c3ccc(F)cc3)CC2)cc1` [Compound A8, 4-(4-fluoro-benzoyl)-piperidine-1-carboxylic acid (4-methoxy-phenyl)-methylamide], the IC50 lay within 3 to 50 µM at His-tagged Parp-1 and 0.3 to 3 µM in assay [1].
Regarding `COc1ccc(C(=O)C2CCN(C(=O)N3CCc4ccccc43)CC2)cc1` [Compound A18, (2,3-dihydro-indol-1-yl)-[4-(4-methoxy-benzoyl)-piperidin-1-yl]-methanone], the IC50 against His-tagged Parp-1 was in the range of 3 to 50 µM; in assay [1], 0.3 to 3 µM.
For the compound `CCN(C(=O)N1CCC(C(=O)c2ccccc2)CC1)c1ccc(OC)cc1` [Compound A14, 4-benzoyl-piperidine-1-carboxylic acid ethyl-(4-methoxy-phenyl)-amide], the IC50 against His-tagged Parp-1 is 3 to 50 µM; in assay [1], under 0.3 µM.
Regarding `CN(C(=O)N1CCC(C(=O)c2ccccc2)CC1)c1ccc(F)cc1` [Compound A13, 4-benzoyl-piperidine-1-carboxylic acid (4-fluoro-phenyl)-methyl-amide], the values for the IC50 (against His-tagged Parp-1; in assay [1]) were 3 to 50 µM and 0.3 to 3 µM, respectively.
Turning to `CN(C(=O)N1CCC(C(=O)c2ccc(NS(C)(=O)=O)cc2)CC1)c1ccccc1` [Compound A38, 4-(4-methanesulfonylamino-benzoyl)-piperidine-1-carboxylic acid methyl-phenyl-amide], the IC50 at His-tagged Parp-1 is 3 to 50 µM; in assay [1] it was under 0.3 µM.
`CCN(C(=O)N1CCC(C(=O)c2cccc(OC)c2)CC1)c1ccc(OC)cc1` [Compound A28, 4-(3-methoxy-benzoyl)-piperidine-1-carboxylic acid ethyl-(4-methoxy-phenyl)amide]: the IC50 against His-tagged Parp-1 was 3 to 50 µM; in assay [1], under 0.3 µM.
On the same counts, the results for `O=C(c1ccccc1)C1CCN(C(=O)N2CCc3ccccc32)CC1` [Compound A16, (4-benzoyl-piperidin-1-yl)-(2,3-dihydro-indol-1-yl)-methanone] are 3 to 50 µM and 0.3 to 3 µM.
For the compound `Cc1cccc(N(C)C(=O)N2CCC(C(=O)c3ccccc3)CC2)c1` [Compound A1, 4-benzoyl-piperidine-1-carboxylic acid methyl-m-tolyl-amide], the IC50 was 3 to 50 µM on His-tagged Parp-1 and 0.3 to 3 µM in assay [1].
In the case of `CCOC(=O)CN(C(=O)N1CCC(C(=O)c2ccc(OC)cc2)CC1)c1ccccc1` [Compound A40, {[4-(4-methoxy-benzoyl)-piperidine-1-carbonyl]-phenyl-amino}-acetic acid ethyl ester], the values for the IC50 (at His-tagged Parp-1; in assay [1]) were 3 to 50 µM and under 0.3 µM, respectively.
On the same counts, the results for `COc1ccc(N(C)C(=O)N2CCC(C(=O)c3cccc(OC)c3)CC2)cc1` [Compound A27, 4-(3-methoxy-benzoyl)-piperidine-1-carboxylic acid (4-methoxy-phenyl)methyl-amide] are 3 to 50 µM and under 0.3 µM.
As to `COc1ccc(N(C)C(=O)N2CCC(C(=O)c3cccc(F)c3)CC2)cc1` [Compound A7, 4-(3-fluoro-benzoyl)-piperidine-1-carboxylic acid (4-methoxy-phenyl)-methylamide], the IC50 against His-tagged Parp-1 was in the range of 3 to 50 µM; in assay [1] it was 0.3 to 3 µM.
As to `COc1ccc(N(C)C(=O)N2CCC(C(=O)c3ccccc3)CC2)cc1` [Compound A4, 4-benzoyl-piperidine-1-carboxylic acid (4-methoxy-phenyl)-methyl-amide], the half-inhibitory concentration (IC50) against His-tagged Parp-1 was in the range of 3 to 50 µM; in assay [1], 0.3 to 3 µM.
On to `Cc1ccc(N(C)C(=O)N2CCC(C(=O)c3ccccc3)CC2)cc1` [Compound A2, 4-benzoyl-piperidine-1-carboxylic acid methyl-p-tolyl-amide], for which the IC50 at His-tagged Parp-1 lay in the range of 3 to 50 µM; in assay [1], 0.3 to 3 µM.

As usually defined, the IC50 is the concentration needed to halve the response being measured.

These data come from US9770446B2, “Piperidine urea derivatives” (MERCK PATENT GMBH, priority 2013, dated 2017).
